The values that follow come from the PolyMetriX glass transition set.

Each structure is given as a SMILES string. ± gives the standard deviation of the reports.

In the case of `*CC(*)C(=O)NC(C)CC` (repeat unit) [Poly(N-sec-butylacrylamide)], the glass transition temperature is 117 °C.
Same read-out and setting: the same measure for `*CC(*)(C)C(=O)OCCCCCCCC(C)C` (repeat unit) [Poly(isodecyl methacrylate)]: -41 °C.

This is another data set of the same source.
The compound `*C=C(*)c1ccccc1` (repeat unit) [Poly(phenylacetylene)] registered a glass transition temperature of 51 °C.

The source holds these as a separate data set.
`*c1cc(N2C(=O)c3ccc(-c4ccc5c(c4)C(=O)N(*)C5=O)cc3C2=O)ccc1OCC(F)(F)C(F)(F)C(F)(F)C(F)(F)C(F)(F)C(F)(F)F` (repeat unit) returned a glass transition temperature of 262.00 °C.
On the same count and under the same terms, then `*c1ccc(P(=O)(c2ccccc2)c2ccc(N3C(=O)c4ccc(-c5ccc6c(c5)C(=O)N(*)C6=O)cc4C3=O)cc2)cc1` (repeat unit), with 371.00 °C.
For `*c1ccc2c(c1)C(=O)N(c1cccc(S(=O)(=O)c3cccc(N4C(=O)c5ccc(*)cc5C4=O)c3)c1)C2=O` (repeat unit), the glass transition temperature was 260.00 °C.
The same measure, in the same setting: the same measure for `*c1ccc2c(c1)C(=O)N(c1ccc(-c3ccc(N4C(=O)c5ccc(C(*)(C(F)(F)F)C(F)(F)F)cc5C4=O)cc3-c3ccccc3C(F)(F)F)c(-c3ccccc3C(F)(F)F)c1)C2=O` (repeat unit): 289.00 °C; for `*c1ccc2c(c1)C(=O)N(c1ccc(-c3ccc(N4C(=O)c5ccc(C(*)(C(F)(F)F)C(F)(F)F)cc5C4=O)cc3Cl)c(Cl)c1)C2=O` (repeat unit): 336.00 °C; for `*c1ccc2c(c1)C(=O)N(c1ccc(N3C(=O)c4ccc(C(*)(C(F)(F)F)C(F)(F)F)cc4C3=O)cc1C(F)(F)F)C2=O` (repeat unit): 366.00 °C.
The same measure, in the same setting: then `*c1ccc2c(c1)C(=O)N(c1ccc(N3C(=O)c4ccc(C(*)(C(F)(F)F)C(F)(F)F)cc4C3=O)cc1F)C2=O` (repeat unit), with 370.00 °C; and `*c1ccc2c(c1)C(=O)N(c1ccc(Oc3ccc(P(=O)(c4ccccc4)c4ccc(Oc5cccc(N6C(=O)c7ccc(C(*)(C(F)(F)F)C(F)(F)F)cc7C6=O)c5)cc4)cc3)cc1)C2=O` (repeat unit), with 220.00 °C; and `*c1ccc2c(c1)C(=O)N(c1ccc(OCC(F)(F)C(F)(F)C(F)(F)F)c(N3C(=O)c4ccc(C(*)(C(F)(F)F)C(F)(F)F)cc4C3=O)c1)C2=O` (repeat unit), with 266.00 °C.
Take `*c1cccc2c1C(=O)N(c1ccc(Cc3ccc(N4C(=O)c5cccc(*)c5C4=O)c(C)c3)cc1C)C2=O` (repeat unit): the glass transition temperature turned out to be 299.50 ± 0.7 °C.
In turn, `*c1cccc2c1C(=O)N(c1ccc(Oc3ccc(N4C(=O)c5cccc(*)c5C4=O)cc3)cc1)C2=O` (repeat unit) gave a glass transition temperature of 306.00 ± 26 °C.
The same measure, in the same setting: the same measure for `*Oc1cccc(C(=O)c2ccc(Oc3ccc4c(c3)C(=O)N(c3ccc(Oc5ccc(N6C(=O)c7ccc(*)cc7C6=O)cc5)cc3)C4=O)cc2)c1` (repeat unit): 210.00 °C; for `*Sc1ccc2c(c1)C(=O)N(c1ccc(Oc3ccc(Oc4ccc(N5C(=O)c6cccc(*)c6C5=O)cc4)cc3)cc1)C2=O` (repeat unit): 238.00 ± 5.7 °C.
The same measure, in the same setting: then `*Oc1cccc(C(=O)c2ccc(Oc3cccc4c3C(=O)N(c3cccc(N5C(=O)c6cccc(*)c6C5=O)c3)C4=O)cc2)c1` (repeat unit), with 248.00 °C.
On the same count and under the same terms, the same measure for `*Oc1ccc2c(c1)C(=O)N(c1cccc(Oc3ccc(C(=O)c4ccc(Oc5cccc(N6C(=O)c7cccc(*)c7C6=O)c5)cc4)cc3)c1)C2=O` (repeat unit): 205.50 ± 2.1 °C.
The compound `*c1ccc(C(=O)c2ccccc2-n2c(=O)c3cc4c(=O)n(*)c(=O)c4cc3c2=O)cc1` (repeat unit) showed a glass transition temperature of 321.00 °C.
Compound `*c1ccc(Oc2ccccc2N2C(=O)c3cc4c(cc3C2=O)C(=O)N(*)C4)cc1` (repeat unit) showed a glass transition temperature of 386.00 °C.
In turn, `*C(=O)c1ccc2c(c1)C(=O)N(c1cccc(C(=O)c3cccc(N4C(=O)c5ccc(*)cc5C4=O)c3)c1)C2=O` (repeat unit) [Polyimide] displayed a glass transition temperature of 220 ± 130 °C.

This is another data set of the same source.
`*c1ccc2c(c1)C(CCCCCCCC)(CCCCCCCC)c1cc(-c3ccc(-c4c(-c5ccccc5)c(-c5ccccc5)c(-c5ccc(*)s5)c5nc(-c6ccccc6)c(-c6ccccc6)nc45)s3)ccc1-2` (repeat unit) returned a glass transition temperature of 192.00 °C.
On to `*c1ccc2c(c1)C(CCCCCCCC)(CCCCCCCC)c1cc(-c3ccc(-c4ccc(*)s4)s3)ccc1-2` (repeat unit), for which the glass transition temperature was 102.00 °C.
Same read-out and setting: the same measure for `*c1ccc2c(c1)N(CC(CCCCCCCC)CCCCCCCCCC)C(=O)/C2=C1/C(=O)N(CC(CCCCCCCC)CCCCCCCCCC)c2cc(-c3ccc(-c4ccc(*)s4)s3)ccc21` (repeat unit): 65.00 °C; for `*c1cc2c(s1)c1sc(-c3sc(-c4ccc(-c5cc(CCCCCC)c(*)s5)c5nsnc45)cc3CCCCCC)cc1n2CC(CC)CCCC` (repeat unit): 90.00 °C.
Same read-out and setting: the same measure for `*c1ccc2c(c1)C(CCCCCCCC)(CCCCCCCC)c1cc(-c3ccc(-c4ccc(-c5ccc(*)s5)c5nsnc45)s3)ccc1-2` (repeat unit): 126.00 °C.

The source holds these as a separate data set.
Turning to `*CC(*)c1ccc(OC)cc1C` (repeat unit) [Poly(4-methoxy-2-methyl styrene) ], the glass transition temperature amounted to 87.4 ± 3.5 °C.
The same measure, in the same setting: then `*CC(*)(C)C(=O)OCC(C)C` (repeat unit) [Poly(isobutyl methacrylate) ], with 47.4 ± 0.7 °C.
Same read-out and setting: then `*CC(*)c1cccc(CO)c1` (repeat unit) [Poly(m-hydroxymethyl styrene) ], with 124.4 ± 0.7 °C; and `*CC(*)c1ccccc1OCCCCCCCC` (repeat unit) [Poly(o-n-octoxy styrene) ], with 12 ± 1.4 °C.
Same read-out and setting: then `*CC(*)c1ccc(C(C)CC)cc1` (repeat unit) [Poly(p-sec-butyl styrene) ], with 85.4 ± 0.7 °C.
`*CCCCCCO*` (repeat unit) [Polyoxyhexamethylene ] registered a glass transition temperature of -71.6 ± 3.5 °C.
